Assays:
[1] = target: 6xHis-Flag affinity tagged Orf63 from lambda bacteriophage (phage λ); assay: SEC-MALS; 2 mg/mL Orf63; 10 mM Tris-HCl, 0.15 M NaCl, pH 8.0; SEC300A column at 0.2 mL/min
[2] = target: fluorescent designed Orf63 binding peptide FAM-Ahx-…; assay: fluorescence polarisation; 10 nM fluorescent peptide with varying concentrations of Orf63 (per protomer) in PBS pH 7.4; 1:1 binding function, each peptide assumed to bind each protomer independently
15N-Orf63 dimer = assay: 15N-HSQC mixing experiment with ubiquitin fusion proteins; assay type: binding, lambda bacteriophage; conditions: 2:1 ubiquitin fusion to 15N-Orf63 dimer, 5 mM Tris-Cl pH 7.4, 50 mM NaCl
Procedure: Amino acid substitution mutants were prepared using the Q5 mutagenesis method (New England Biolabs) with oligonucleotides from IDT. […] At an A600 of 0.8, expression was induced by the addition of 1 mM isopropyl thiogalactoside (IPTG), and the culture was grown for 3 h further before harvesting. Detailed information regarding the purification of this fragment by nickel affinity and gel filtration chromatography has been published previously. For NMR spectroscopy, a uniformly ^13C, ^15N isotopically labelled protein sample was made from a 1 L culture containing M9 minimal media salts supplemented with 3 g of ^13C-glucose (Sigma-Aldrich), 1 g of ^15N ammonium chloride (Sigma-Aldrich) and 1 g of ^13C,^15N Celtone algal extract (Cambridge Isotopes). Natural abundance Orf63 proteins were prepared using a similar protocol except cultures were grown in LB media. Protein concentrations were estimated by UV absorbance at 280 nm. […]
design ubiquitin […]
control ubiquitin […]
(a) A mixing experiment was performed with 15N-Orf63 and a Ubiquitin-fusion protein with a C-terminal extension corresponding to a designed peptide, or an unrelated peptide control. The mixing ratio was 2:1 (Ubiquitin fusion […]
(b,c) 15N-HSQC spectra of 15N-Orf63
(blue) and 15N-Orf63 mixed with a Ubiquitin fusion protein. Asterisks denote peaks that were […]

Orf63 = assay: 1H,15N-HSQC comparison of Orf63-linker-peptide hybrid protein with Orf63; assay type: binding, lambda bacteriophage; conditions: 0.15 mM 15N-labeled 6xHis-Flag-Orf63-linker-peptide vs 0.15 mM 15N-labeled 6xHis-Flag-Orf63
15N-Orf63 = assay: 15N-HSQC titration / chemical shift perturbation (CSP) mapping of peptide binding; set-up: species or system lambda bacteriophage
Procedure: (a) ^1H-^15N chemical shift perturbations (CSPs) measured between ^15N-Orf63 free, and in complex with a unlabelled designed peptide. Blue shading highlights a CSP > 0.05.
A titration was performed by acquiring a series of ^15N-HSQC spectra of 0.48 mM ^15N-Orf63 (monomeric concentration) with 0.12, 0.24, 0.36, 0.48, and 0.60 mM peptide ([…]) manufactured by GenScript (Piscataway, NJ) in phosphate buffered saline pH 7.4. Assignments of peptide-bound ^15N-Orf63, particularly through two helical regions, were made by walking through HN-HN correlations in a 3D 15N-NOESY spectrum.
Most resonances during the […]
throughout the two a-helical regions, was confirmed by an HN-HN walk through a 3D 15N-NOESY spectrum. Unassigned resonances N-terminal helix a1 and C-terminal to helix a2 are likely unstructured due to the absence of i,i+3, i,i+4, and HN-HN NOEs. The residue numbering follows the PDB file 8DSB and the expressed protein with N-terminal affinity […]
(1 picture or pasted object on this page, not shown here)

[3] = system: lysogenic or lytic developmental outcome of phage λ infection; conditions: period to new viral progeny, bacterial survivors, conversion to lysogens; ref [8],[11]; cited from earlier work

Molecule: 6xHis-Flag affinity tagged Orf63 from lambda bacteriophage (natural protein)
- stoichiometry N [1]: 2
- Kd [2]: 3.1 µM

Molecule: DTKELILAIARKVKEMIKNS [Ubiquitin fusion protein]
- line broadening / chemical shift changes (15N-Orf63 dimer): significant line broadening suggesting binding was occurring
- line broadening / chemical shift changes (15N-Orf63 dimer; listed as design): severely line broadened

Molecule: DTKELILAIARKVKEMIKNS [hybrid protein]
- spectrum of hybrid protein relative to Orf63 (Orf63): resembled Orf63 with additional peaks from the helical ligand along with a set of chemical shift changes

Molecule: DTKELILAIARKVKEMIKNS [synthetic peptide]
- saturation of the complex (15N-Orf63; 0.48 mM 15N-Orf63 (monomeric), 0.12-0.60 mM peptide, PBS pH 7.4, between 1:1 and 1.2:1 peptide:protomer ratio): the complex was deemed to be saturated with peptide ligand
- exchange regime of CSPs, majority of resonances (15N-Orf63; 0.48 mM 15N-Orf63 (monomeric), titrated with peptide, PBS pH 7.4): fast exchange
- exchange regime of CSPs, minority of resonances in helix α2 from S45 onwards (15N-Orf63; 0.48 mM 15N-Orf63 (monomeric), titrated with peptide, PBS pH 7.4, largest measured CSPs): slow exchange
- observed interaction surface (CSPs mapped on the structure) (15N-Orf63; 0.48 mM 15N-Orf63, PBS pH 7.4): consistent with the predicted interaction surface of the model

Molecule: MAIAHAATEYVFADFVLK [reference compound]
- line broadening / chemical shift changes (15N-Orf63 dimer): no chemical shift or line broadening changes

B1: Ea22: protein encoded between the exo and xis genes of phage λ (protein, UniProt P03756 1-182, looked up)
Protein ea22: MSEINSQALREAAEQAMHDDWGFDADLFHELVTPSIVLELLDERERNQQYIKRRDQENEDIALTVGKLRVELETAKSKLNEQREYYEGVISDGSKRIAKLESNEVREDGNQFLVVRHPGKTPVIKHCTGDLEEFLRQLIEQDPLVTIDIITHRYYGVGGQWVQDAGEYLHMMSDAGIRIKGE
- lytic/lysogenic tendency [3]: pro-lysogenic

Source: paper PMC10869804 (Scientific Reports, 2024)
